Where no end group is shown, it is not given here.
Key:
[1] = test system: IgA; assay type: biochemical, human
[2] = test system: IgA (serum and salivary); assay: Phosphonate binding: irreversible adducts with IgA, SDS-electrophoresis, streptavidin-peroxidase; details: reducing SDS-gels after heating (100° C., 5 min)
[3] = test system: IgM Yvo; assay: Irreversible binding of biotinylated phosphonate by IgM Yvo; details: probe 500 μM; IgM Yvo 0.1 μM
[4] = test system: Monoclonal IgA (ID 2582); assay: Stoichiometry / active site titration of monoclonal IgA with phosphonate; assay type: biochemical, human; details: for x-intercept of residual activity (%) versus [inhibitor]/[IgA] plot: monoclonal IgA 2582 preincubated 18 h with 2.5-20 μM inhibitor, Glu-Ala-Arg-AMC 0.4 mM
[5] = test system: IgA catalyzed gp120 cleavage (salivary IgA, serum IgA); assay: Inhibition of IgA catalyzed gp120 cleavage; assay type: biochemical, human
Procedure: Values are means of duplicates.
FIG. 20B depicts streptavidin-peroxidase stained SDS-gel blots (reducing conditions) showing Bt-gp120 (0.1 μM) incubated in diluent (lane 1) and monoclonal IgA (80 μg/ml, from multiple myeloma subject 2582) in the absence (lane 2) or presence of Glu-Ala-Arg-AMC (lane 3; 0.2 mM). […] FIG. 20C is EP-hapten 3 which is the non-biotinylated version of EP-hapten 1.
In some experiments, the cleavage rate was expressed as the intensity of the 55 kD product band (in AVU, corrected for background intensity observed in reaction mixtures of gp120 incubated in diluent instead of Ab). For cleavage site determination, gp120 was incubated with IgA (pooled from subject codes 2288-2291), the IgA was removed by binding to an anti-human IgA column as described above, and the unbound fraction was lyophilized and redissolved in SDS-electrophoresis buffer containing 2-mercaptoethanol. The gp120 fragments in PVDF blots of SDS-gels were stained with Coomassie blue and subjected to N-terminal sequencing as described previously (33).

[6] = test system: HIV neutralizing activity of CIVIG / IgA; assay: Inhibition of immunoglobulin-mediated HIV neutralization by electrophilic peptide; assay type: cell-based, HIV-1; details: 100 μM; for Effect on HIV neutralizing activity of serum IgA: 0.5 h preincubation, IgA 2 μg/ml
Procedure: CIVIGm (FIG. 10A) and CIVGa (FIG. 10B) were incubated for 30 min with gp120 peptide-CRA (100 μM) or diluent, and the residual neutralization activity was determined as in FIG. 9 (CIVIGm, 10 μg/mL; CIVGa, 2 μg/mL).
HIV-1 strain, 97ZA009; host cells, phytohemagglutinin-stimulated PBMCs. Abs were incubated with the virus for 24 h. Values are expressed as percent reduction of p24 concentrations in test cultures compared to cultures that received diluent instead of the Abs (means±s.d. of 4 replicates). […] IgA purified from human serum (2 μg/ml) was preincubated (0.5 h) with EP-421-433 (100 μM), control EP-VIP or diluent, and the residual HIV neutralizing activity measured as in panel A. Data are expressed relative p24 levels observed in the absence of antibody. […] HIV was preincubated with the salivary or serum IgA for 1 h and the neutralizing activity measured as in FIG. 24A.
Covalently reactive analogs (CRAs) of polypeptides have been developed as probes for antibodies. CRAs contain an electrophilic phosphonate analog capable of irreversible binding to nucleophiles present in antibody combining sites. The covalent reaction occurs in coordination with noncovalent antigen-antibody binding, ensuring specificity, and permitting the use of peptidyl CRAs for irreversible and specific binding to the antibodies. One such peptidyl CRA reported is an analog of gp120 residues 421-433 containing the phosphonate at its C terminus (gp120 peptide CRA). This region of gp120 is a component of the superantigenic site of this protein. Neutralization of HIV-1 by CIVIGa and CIVIGm was inhibited by the gp120 peptide CRA, confirming that recognition of the gp120 superantigenic site is required for the neutralizing activity. FIGS. 10A-10B illustrate these findings. CIVIGm and CIVGa were preincubated with the gp120 peptide-CRA or diluent, and the residual neutralization activity was determined as in FIG. 9. An irrelevant peptide CRA, VIP-CRA was employed as the control reagent to rule out nonspecific effects. […]

[7] = 10 μM, bleed 2, conditions as FIG. 22B
[8] = increasing concentrations 10-100 μM

Question: How did the IC50 [1] turn out when `N=C(N)c1ccc(C(NC(=O)CCCCCNC(=O)CCCC[C@@H]2SC[C@@H]3NC(=O)N[C@@H]32)P(=O)(Oc2ccccc2)Oc2ccccc2)cc1` (stereo partly shown) [1a, diphenyl N-(6-biotinamidohexanoyl)amino(4-amidinophenyl)methanephosphonate] was run?
Answer: Its IC50 is 37 ± 1 µM.

Question: What about the “Inhibition of catalytic activity of serum IgA” value [1] of the same compound?
Answer: The value was “inhibited the catalytic activity”.

Question: What about the “Formation of irreversible adducts with IgA” value (shortened to “Formation”) [2] of the same compound?
Answer: Its value is “dominant ˜60 kD 1a-adduct of the heavy chain”.

Question: And the “Formation” value ([2]; listed as EP-hapten 1)?
Answer: Its value is “formed adducts”.

Question: What about the “Irreversible reaction with IgM Yvo” value [3] of the same compound?
Answer: The value was “reacts irreversibly”.

Question: Which results are given for `N=C(N)c1ccc(C(NC(=O)OCc2ccccc2)P(=O)(Oc2ccccc2)Oc2ccccc2)cc1` (stereo not shown) [1b, diphenyl N-(benzyloxycarbonyl)amino(4-amidinophenyl)methanephosphonate]?
Answer: x-intercept of residual activity (%) versus [inhibitor]/[IgA] plot [4]: 2.5; x-intercept of residual activity (%) versus [inhibitor]/[IgA] plot ([4]; listed as EP-hapten 3): 2.4; Inhibitor needed for complete inhibition of 1 mole IgA ([4]; monoclonal IgA, Glu-Ala-Arg-AMC substrate): 2.4 mol

Question: Which “Formation” value [2] does the source give for `N=C(N)c1ccc(C(NC(=O)CCCCCNC(=O)CCCC[C@@H]2SC[C@@H]3NC(=O)N[C@@H]32)P(=O)(O)O)cc1` (stereo partly shown) [hapten 2, N-(6-biotinamidohexanoyl)amino(4-amidinophenyl)methanephosphonic acid] here?
Answer: Its value is “did not inhibit IgA-catalyzed gp120 cleavage or form adducts”.

Question: What about the “Irreversible reaction with IgM Yvo” value [3] of the same compound?
Answer: The value was “does not react appreciably”.

Question: With “EP-421-433: gp120 residues 421-431 with the amidinophosphonate mimetic of residues 432-433 at the C-terminus (KQIINMWQEVG; not fully specified (C-terminus); printed as Lys-Gln-Ile-Ile-Asn-Met-Trp-Gln-Glu-Val-Gly)” as the compound, how does the “% inhibition of gp120 cleavage by IgA of SP subject 2097” value [5, 7] read?
Answer: The value was 89±6%.

Question: And the “% inhibition of gp120 cleavage by IgA of SP subject 2098” value [5, 7]?
Answer: Its value is 94±12%.

Question: And the “Inhibition of cleavage of Bt-gp120 by salivary IgA” value [5, 8]?
Answer: The value was 21-85%.

Question: What about the “Inhibition of cleavage of Bt-gp120 by serum IgA” value [5, 8] of the same compound?
Answer: Its value is 41-91%.

Question: And the “Formation” value [2]?
Answer: The value was “superior irreversible binding”.

Question: And the “Inhibition of HIV-1 neutralization by CIVIGa and CIVIGm” value ([6]; 30 min preincubation, CIVIGm 10 μg/mL, CIVGa 2 μg/mL)?
Answer: The value was “inhibited”.

Question: What about the “Effect on HIV neutralizing activity of serum IgA” value [6] of the same compound?
Answer: Its value is “inhibited the neutralizing activity”.

Question: Which “% inhibition of gp120 cleavage by IgAs of SP subjects 2097 and 2098” value ([5]; equivalent concentration (10 μM) of control probe) does the source give for “EP-VIP: VIP containing the amidinophosphonate at Lys20 side chain; control electrophilic peptide” here?
Answer: Its value is < 15%.

Question: And the “Effect on HIV neutralizing activity of serum IgA” value [6]?
Answer: Its value is “minimally influenced”.

From patent US20090297534A1, “Catalytic Immunoglobulins BBK32 and Uses Therefor” (priority 2005, published 2009)
